Our source for the IC50 and viability, T/C values is PubChem BioAssay AID1918940 (Molecular Pharmacology Branch, DTP, NCI, 2023).

“And” between values parts separate entries of the source, which are not always exact repeats. Identical values can stand only once.

The subject of this assay is NCI-H211 complex spheroid viability. The experiment in a line: Anticancer human tumor NCI-H211 cell line growth inhibition [LSD1].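 For all read-outs here: luminescent viability read after seven days of drug exposure.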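 For viability, T/C: 100% = DMSO vehicle control viability.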 The settings on record: for viability, T/C: stronger effect = lower value. Put shortly: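 Multicellular complex spheroids of tumor cells with human endothelial cells (HUVEC) and mesenchymal stem cells; the LSD1 inhibitor iadademstat was combined with standard-of-care or investigational agents. Top concentration at or near clinical Cmax, half-log dilutions; final DMSO ≤0.25%.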

The mark [1] stands for this setting: curve of first compound, second compound 0.1 µM.
[2] abbreviates: curve of first compound, second compound 0.316 µM.
Where [3] appears, read: curve of first compound, second compound 1 µM.
Setting [4] is: curve of first compound, second compound 3.16 µM.
Where [5] appears, read: curve of first compound, second compound 10 µM.
Setting [6] is: second compound 0.1 µM, first compound 0.00949 µM.
Setting [7] is: second compound 0.1 µM, first compound 0.03 µM.
The mark [8] stands for this setting: second compound 0.1 µM, first compound 0.0949 µM.
The mark [9] stands for this setting: second compound 0.1 µM, first compound 0.3 µM.
The mark [10] stands for this setting: second compound 0.1 µM, first compound 0.949 µM.
[11] abbreviates: second compound 0.1 µM, first compound 3 µM.
Where [12] appears, read: second compound 0.316 µM, first compound 0.00949 µM.
Where [13] appears, read: second compound 0.316 µM, first compound 0.03 µM.
The mark [14] stands for this setting: second compound 0.316 µM, first compound 0.0949 µM.
Setting [15] is: second compound 0.316 µM, first compound 0.3 µM.
[16] abbreviates: second compound 0.316 µM, first compound 0.949 µM.
[17] abbreviates: second compound 0.316 µM, first compound 3 µM.
Where [18] appears, read: second compound 1 µM, first compound 0.00949 µM.
Where [19] appears, read: second compound 1 µM, first compound 0.03 µM.
Where [20] appears, read: second compound 1 µM, first compound 0.0949 µM.
[21] abbreviates: second compound 1 µM, first compound 0.3 µM.
Where [22] appears, read: second compound 1 µM, first compound 0.949 µM.
Setting [23] is: second compound 1 µM, first compound 3 µM.
Setting [24] is: second compound 3.16 µM, first compound 0.00949 µM.
Setting [25] is: second compound 3.16 µM, first compound 0.03 µM.
Setting [26] is: second compound 3.16 µM, first compound 0.0949 µM.
Where [27] appears, read: second compound 3.16 µM, first compound 0.3 µM.
Where [28] appears, read: second compound 3.16 µM, first compound 0.949 µM.
Where [29] appears, read: second compound 3.16 µM, first compound 3 µM.
[30] abbreviates: second compound 10 µM, first compound 0.00949 µM.
The mark [31] stands for this setting: second compound 10 µM, first compound 0.03 µM.
The mark [32] stands for this setting: second compound 10 µM, first compound 0.0949 µM.
[33] abbreviates: second compound 10 µM, first compound 0.3 µM.
Where [34] appears, read: second compound 10 µM, first compound 0.949 µM.
[35] abbreviates: second compound 10 µM, first compound 3 µM.

For the molecule `NS(=O)(=O)OCC1CC(n2ccc3c(NC4CCc5ccccc54)ncnc32)CC1O` (stereo not given) + NC1CCC(NC2CC2c2ccccc2)CC1, the half-inhibitory concentration (IC50) (usually the concentration that inhibits the measured activity by half) runs as follows: under setting [1], less than 9.49 nM; under setting [2], less than 9.49 nM; under setting [3], less than 9.49 nM; under setting [4], less than 9.49 nM; under setting [5], less than 9.49 nM. Besides, the viability, T/C (as a rule, the ratio of treated to control) is 17.3% under setting [6]; 8.79% under setting [7]; 2.05% under setting [8]; 4.77% under setting [9]; 0.6% under setting [10]; 0.42% under setting [11]. For the same molecule, the viability, T/C reads like this: under setting [12], 16.2%; under setting [13], 7.48%; under setting [14], 2.74%; under setting [15], 0.89%; under setting [16], 0.5%; under setting [17], 0.48%. The viability, T/C is, setting by setting: under setting [18], 15.2%; under setting [19], 7.52%; under setting [20], 2.66%; under setting [21], 1.51%; under setting [22], 5.93%; under setting [23], 0.59%. Moreover, the viability, T/C is 11.4% under setting [24]; 6.38% under setting [25]; 1.67% under setting [26]; 0.54% under setting [27]; 0.21% under setting [28]; 5.61% under setting [29]. Moreover, the viability, T/C by setting is: under setting [30], 7.36%; under setting [31], 4.1%; under setting [32], 0.72%; under setting [33], 0.29%; under setting [34], 0.22%; under setting [35], 0.19%.
Regarding `COc1ccc([C@@H](O)c2cc(-c3ncnc4cc(N5CCOCC5)ccc34)c(F)cc2Cl)nn1` + NC1CC1c1ccc(-c2cccc(O)c2)cc1, the 50% inhibitory concentration (IC50) is 4470 nM under setting [1]; 4050 nM under setting [2]; 3570 nM under setting [3]; 2490 nM under setting [4]; less than 31.6 nM under setting [5]. The viability, T/C (second compound 0.1 µM, first compound 0.0316 µM) is 62%; the viability, T/C (second compound 0.1 µM, first compound 0.1 µM) was 63.6%; the viability, T/C (second compound 0.1 µM, first compound 0.316 µM) is 75%; the viability, T/C (second compound 0.1 µM, first compound 1 µM) was 89.8%; the viability, T/C (second compound 0.1 µM, first compound 3.16 µM) is 65.8%; the viability, T/C (second compound 0.1 µM, first compound 10 µM) was 13.6%. For the same molecule, the viability, T/C (second compound 0.316 µM, first compound 0.0316 µM) is 59.7%; the viability, T/C (second compound 0.316 µM, first compound 0.1 µM) was 52.7%; the viability, T/C (second compound 0.316 µM, first compound 0.316 µM) was 62.2%; the viability, T/C (second compound 0.316 µM, first compound 1 µM) is 73.5%; the viability, T/C (second compound 0.316 µM, first compound 3.16 µM) is 59.9%; the viability, T/C (second compound 0.316 µM, first compound 10 µM) is 12.2%. Further, the viability, T/C was 67.3% (second compound 1 µM, first compound 0.0316 µM); 67% (second compound 1 µM, first compound 0.1 µM); 72.2% (second compound 1 µM, first compound 0.316 µM); 76.8% (second compound 1 µM, first compound 1 µM); 54.8% (second compound 1 µM, first compound 3.16 µM); 9.71% (second compound 1 µM, first compound 10 µM). In addition, the viability, T/C by setting is: (second compound 3.16 µM, first compound 0.0316 µM) 54.5%; (second compound 3.16 µM, first compound 0.1 µM) 53.1%; (second compound 3.16 µM, first compound 0.316 µM) 59%; (second compound 3.16 µM, first compound 1 µM) 60.4%; (second compound 3.16 µM, first compound 3.16 µM) 48.2%; (second compound 3.16 µM, first compound 10 µM) 8.23%. For the same molecule, the viability, T/C reads like this: (second compound 10 µM, first compound 0.0316 µM) 51.2%; (second compound 10 µM, first compound 0.1 µM) 38.8%; (second compound 10 µM, first compound 0.316 µM) 51.6%; (second compound 10 µM, first compound 1 µM) 48%; (second compound 10 µM, first compound 3.16 µM) 36.7%; (second compound 10 µM, first compound 10 µM) 3.23%.
With `CC1(C)CCC(CN2CCN(c3ccc(C(=O)NS(=O)(=O)c4ccc(NCC5CCOCC5)c([N+](=O)[O-])c4)c(Oc4cnc5[nH]ccc5c4)c3)CC2)=C(c2ccc(Cl)cc2)C1`, the viability, T/C was 95.3% and 36.1% (compound 0.0316 µM); 98.2% and 43.8% (compound 0.1 µM); 98.3% and 47.9% (compound 0.316 µM); 124% and 72.7% (compound 1 µM); 118% and 99.6% (compound 3.16 µM); 32.2% and 60.1% (compound 10 µM).
`CC1COCCN1c1cc(C2(S(C)(=N)=O)CC2)nc(-c2ccnc3[nH]ccc23)n1` (stereo not given): the viability, T/C (compound 0.0316 µM) was 84.3% and 102%; the viability, T/C (compound 0.1 µM) is 72.6% and 81.8%; the viability, T/C (compound 0.316 µM) is 49.4% and 63.4%; the viability, T/C (compound 1 µM) is 20.4% and 14.6%; the viability, T/C (compound 3.16 µM) was 4.23% and 5.02%; the viability, T/C (compound 10 µM) was 2.56% and 2.74%. In addition, under “curve of compound”, the IC50 was 299 nM and 405 nM.
Consider `Nc1ccccc1NC(=O)c1ccc(CNC(=O)OCc2cccnc2)cc1` + NC1CC1c1ccc(-c2cccc(O)c2)cc1, for which the half-inhibitory concentration (IC50) runs as follows: under setting [1], 12.2 nM; under setting [2], less than 9.49 nM; under setting [3], less than 9.49 nM; under setting [4], less than 9.49 nM; under setting [5], 12 nM. Further, the viability, T/C is, setting by setting: under setting [6], 56.5%; under setting [7], 26.4%; under setting [8], 4.02%; under setting [9], 1.9%; under setting [10], 1.18%; under setting [11], 0.14%. The viability, T/C by setting is: under setting [12], 46.8%; under setting [13], 18.2%; under setting [14], 4.2%; under setting [15], 2.36%; under setting [16], 1.27%; under setting [17], 0.1%. The viability, T/C under setting [18] is 45.8%; the viability, T/C under setting [19] was 25.1%; the viability, T/C under setting [20] was 3.68%; the viability, T/C under setting [21] was 2.02%; the viability, T/C under setting [22] was 1.28%; the viability, T/C under setting [23] was 0.1%. Besides, the viability, T/C under setting [24] was 43.4%; the viability, T/C under setting [25] was 24.5%; the viability, T/C under setting [26] was 4.34%; the viability, T/C under setting [27] is 3.1%; the viability, T/C under setting [28] is 1.14%; the viability, T/C under setting [29] was 0.14%. The viability, T/C was 53.6% under setting [30]; 36.1% under setting [31]; 5.02% under setting [32]; 2.76% under setting [33]; 0.95% under setting [34]; 0.16% under setting [35].
On to `COc1cc(C2c3cc4c(cc3C(OC3OC5COC(C)OC5C(O)C3O)C3COC(=O)C23)OCO4)cc(OC)c1O` (stereo not given), for which the viability, T/C by setting is: (compound 0.00949 µM) 71.3% and 48.3%; (compound 0.03 µM) 15.2% and 13.1%; (compound 0.0949 µM) 2.55% and 6.21%; (compound 0.3 µM) 2.41% and 5.04%; (compound 0.949 µM) 2.11% and 6.22%; (compound 3 µM) 2.35% and 5.42%. Further, the half-inhibitory concentration (IC50) (curve of compound) is 14.7 nM and < 9.49 nM.
